Data from PubChem BioAssay AID1963844 (Molecular Pharmacology Branch, DTP, NCI, 2024).

Test system: 422866-222-R5-J1-PDC complex spheroid viability
Assay: Anticancer human tumor 422866-222-R5-J1-PDC patient-derived pancreatic adenocarcinoma cell line growth inhibition [POLQ]
Conditions: for IC50: curve of first compound; for viability, T/C: stronger effect = lower value
In short: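 PDC + HUVEC + MSC complex spheroids; POLQ inhibitors ± partner drugs; top conc. at/near clinical Cmax, else 10 microM (SN-38 1 microM), half-log dilutions; 37 degrees C, 5% CO2.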

[1] = second compound 0.0316 µM, first compound 0.0316 µM
[2] = second compound 0.0316 µM, first compound 0.1 µM
[3] = second compound 0.0316 µM, first compound 0.316 µM
[4] = second compound 0.0316 µM, first compound 1 µM
[5] = second compound 0.0316 µM, first compound 3.16 µM
[6] = second compound 0.0316 µM, first compound 10 µM
[7] = second compound 0.1 µM, first compound 0.0316 µM
[8] = second compound 0.1 µM, first compound 0.1 µM
[9] = second compound 0.1 µM, first compound 0.316 µM
[10] = second compound 0.1 µM, first compound 1 µM
[11] = second compound 0.1 µM, first compound 3.16 µM
[12] = second compound 0.1 µM, first compound 10 µM
[13] = second compound 0.316 µM, first compound 0.0316 µM
[14] = second compound 0.316 µM, first compound 0.1 µM
[15] = second compound 0.316 µM, first compound 0.316 µM
[16] = second compound 0.316 µM, first compound 1 µM
[17] = second compound 0.316 µM, first compound 3.16 µM
[18] = second compound 0.316 µM, first compound 10 µM
[19] = second compound 1 µM, first compound 0.0316 µM
[20] = second compound 1 µM, first compound 0.1 µM
[21] = second compound 1 µM, first compound 0.316 µM
[22] = second compound 1 µM, first compound 1 µM
[23] = second compound 1 µM, first compound 3.16 µM
[24] = second compound 1 µM, first compound 10 µM
[25] = second compound 3.16 µM, first compound 0.0316 µM
[26] = second compound 3.16 µM, first compound 0.1 µM
[27] = second compound 3.16 µM, first compound 0.316 µM
[28] = second compound 3.16 µM, first compound 1 µM
[29] = second compound 3.16 µM, first compound 3.16 µM
[30] = second compound 3.16 µM, first compound 10 µM
[31] = second compound 10 µM, first compound 0.0316 µM
[32] = second compound 10 µM, first compound 0.1 µM
[33] = second compound 10 µM, first compound 0.316 µM
[34] = second compound 10 µM, first compound 1 µM
[35] = second compound 10 µM, first compound 3.16 µM
[36] = second compound 10 µM, first compound 10 µM
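Further: spheroids exposed to compounds for one week before readout.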
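Wherever viability, T/C is given: percent of DMSO vehicle wells luminescence so 100% = untreated viability.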

Question: What does the source list for `CCc1cc2c(N3CCc4c(cc(Cn5ccnc5)cc4-c4cn(C)nc4C(F)(F)F)C3=O)cc(C)nc2c(OC)n1` + Nc1ccc(C#CCN(C(=O)Cc2ncc(C(F)(F)F)cc2C(F)(F)F)c2ccc(F)cc2)nn1?
Answer: IC50 (second compound 0.0316 µM): > 10 µM; IC50 (second compound 0.1 µM): > 10 µM; IC50 (second compound 0.316 µM): > 10 µM; IC50 (second compound 1 µM): > 10 µM; IC50 (second compound 3.16 µM): > 10 µM; IC50 (second compound 10 µM): > 10 µM; viability, T/C [1]: 79.3%; viability, T/C [2]: 88.6%; viability, T/C [3]: 96%; viability, T/C [4]: 115%; viability, T/C [5]: 103%; viability, T/C [6]: 95.5%; viability, T/C [7]: 105%; viability, T/C [8]: 97.4%; viability, T/C [9]: 102%; viability, T/C [10]: 87.1%; viability, T/C [11]: 98.7%; viability, T/C [12]: 99.7%; viability, T/C [13]: 99.5%; viability, T/C [14]: 86.3%; viability, T/C [15]: 94.8%; viability, T/C [16]: 88.3%; viability, T/C [17]: 118%; viability, T/C [18]: 100%; viability, T/C [19]: 95.6%; viability, T/C [20]: 75%; viability, T/C [21]: 87.7%; viability, T/C [22]: 99.7%; viability, T/C [23]: 94.9%; viability, T/C [24]: 96.2%; viability, T/C [25]: 81.2%; viability, T/C [26]: 93.6%; viability, T/C [27]: 95.2%; viability, T/C [28]: 99.2%; viability, T/C [29]: 122%; viability, T/C [30]: 107%; viability, T/C [31]: 102%; viability, T/C [32]: 112%; viability, T/C [33]: 106%; viability, T/C [34]: 83.7%; viability, T/C [35]: 102%; viability, T/C [36]: 113%

Question: What does the source list for `CCc1cc2c(N3CCc4c(cc(Cn5ccnc5)cc4-c4cn(C)nc4C(F)(F)F)C3=O)ccnc2c(OC)n1` + Nc1ccc(C#CCN(C(=O)Cc2ncc(C(F)(F)F)cc2C(F)(F)F)c2ccc(F)cc2)nn1?
Answer: IC50 (second compound 0.0316 µM): > 10 µM; IC50 (second compound 0.1 µM): > 10 µM; IC50 (second compound 0.316 µM): > 10 µM; IC50 (second compound 1 µM): > 10 µM; IC50 (second compound 3.16 µM): > 10 µM; IC50 (second compound 10 µM): > 10 µM; viability, T/C [1]: 82.5%; viability, T/C [2]: 102%; viability, T/C [3]: 103%; viability, T/C [4]: 119%; viability, T/C [5]: 89.2%; viability, T/C [6]: 126%; viability, T/C [7]: 79.7%; viability, T/C [8]: 103%; viability, T/C [9]: 112%; viability, T/C [10]: 109%; viability, T/C [11]: 95.6%; viability, T/C [12]: 120%; viability, T/C [13]: 85.7%; viability, T/C [14]: 85.2%; viability, T/C [15]: 79.5%; viability, T/C [16]: 128%; viability, T/C [17]: 98.9%; viability, T/C [18]: 98.3%; viability, T/C [19]: 82.8%; viability, T/C [20]: 77.3%; viability, T/C [21]: 107%; viability, T/C [22]: 101%; viability, T/C [23]: 113%; viability, T/C [24]: 107%; viability, T/C [25]: 102%; viability, T/C [26]: 90.7%; viability, T/C [27]: 92%; viability, T/C [28]: 92.7%; viability, T/C [29]: 114%; viability, T/C [30]: 115%; viability, T/C [31]: 92.8%; viability, T/C [32]: 115%; viability, T/C [33]: 93.7%; viability, T/C [34]: 102%; viability, T/C [35]: 110%; viability, T/C [36]: 106%
